Test results as given in ChEMBL document CHEMBL4627379, “Production of Antitubercular Depsipeptides via Biosynthetic Engineering of Cinnamoyl Units” (2020).

test system: Mycobacterium tuberculosis; assay: Antitubercular activity against autoluminescent Mycobacterium tuberculosis H37Rv assessed as reduction in microbial growth by two-fold serial dilution method; assay type: functional

C/C=C/[C@H](O)[C@H](O)c1ccccc1/C=C/C(=O)N[C@@H]1C(=O)N[C@@H](CO)C(=O)N[C@H](CC(C)C)C(=O)N[C@@H]([C@H](O)c2ccccc2)C(=O)N[C@@H](CO)C(=O)N[C@H]([C@@H](C)O)C(=O)N[C@H](CO)C(=O)N[C@H](c2ccc(O)cc2)C(=O)N[C@@H](C(C)C)C(=O)N[C@H](CC(C)C)C(=O)O[C@H]1C and C/C=C/C=C/c1ccccc1/C=C/C(=O)N[C@@H]1C(=O)N[C@@H](CO)C(=O)N[C@@H](Cc2c[nH]c3ccccc23)C(=O)N[C@H](CC(N)=O)C(=O)N[C@@H]([C@@H](O)c2ccccc2)C(=O)N2CCC[C@H]2C(=O)N[C@H](C(C)C)C(=O)NCC(=O)N[C@H](CC(C)C)C(=O)N[C@H](Cc2ccc(O)cc2)C(=O)O[C@@H]1C are within 1.5-fold of each other in MIC: 1.9 µM for the first, 2.3 µM for the second.

Compared with Cc1ccccc1/C=C/C(=O)N[C@@H]1C(=O)N[C@@H](CO)C(=O)N[C@@H](Cc2c[nH]c3ccccc23)C(=O)N[C@H](CC(N)=O)C(=O)N[C@@H]([C@@H](O)c2ccccc2)C(=O)N2CCC[C@H]2C(=O)N[C@H](C(C)C)C(=O)NCC(=O)N[C@H](CC(C)C)C(=O)N[C@H](Cc2ccc(O)cc2)C(=O)O[C@@H]1C, CO[C@H]1/C=C/O[C@@]2(C)Oc3c(C)c(O)c4c(O)c(c(/C=N/N5CCN(C)CC5)c(O)c4c3C2=O)NC(=O)/C(C)=C\C=C\[C@H](C)[C@H](O)[C@@H](C)[C@@H](O)[C@@H](C)[C@H](OC(C)=O)[C@@H]1C [RIFAMPIN] is 250-fold lower in MIC: 14.8 µM for the first, 0.06 µM for the second.
